Laboratory results as given in US20030119733A1, “Compositions and methods for inhibiting hepatocyte invasion by malarial sporozoites” (New York University, priority 1992, published 2003).
Entries after “also recorded” stand apart in the source; their conditions may differ. Where no end group is shown, it is not given here. The star is where a group is joined. Cam = NC(=O)C*

Experiments:
[1] = tested on: binding of CS27IVC to liver sections; assay: Peptide inhibition of CS27IVC binding to frozen liver sections; design: species or system rat; settings: peptide preincubation, up to 500 μg/ml
Protocol: The procedure was carried out essentially as described by Dukor P. et al., Proc. Natl. Acad. Sci. USA 67:991-997, 1970 and Imai Y. et al., J. Cell. Biol. 111:1225-1232, 1990. Rats were euthanized with CO2. Small pieces of the liver, spleen, heart, brain and lung were removed, snap frozen in liquid nitrogen, embedded in Tissue Tek O.C.T. (Miles, Inc., Naperville, Ill.), and cut into 5 μm sections. Sections were dried for 30 min., fixed for 10 min. in 4% paraformaldehyde, rinsed three times with phosphate-buffered saline (PBS), and either used immediately or stored at 4° C. in 1% BSA, 0.5% Tween, PBS (BSA/TPBS). After blocking with 100 mM glycine (pH 7.2) and with BSA/TPBS, the sections were sequentially incubated at 37° C. with recombinant proteins for 1 hr, 10 μg/ml MAb 2A10 for 45 min., and rat anti-mouse immunoglobulin conjugated to fluorescein isothiocyanate (Boehringer Mannheim, Indianapolis, Ind.) for 45 min. The slides were counterstained for 10 min. with 0.3% Evans blue, rinsed extensively in PBS, and finally observed under a fluorescence microscope. For peptide inhibition experiments, the sections were first incubated with the peptide at various concentrations in BSA/TPBS for 1 hour at 37° C., washed six times with BSA/TPBS, and then stained with 2.5 μg/ml CS recombinant protein as described above. In a few experiments, the tissues were fixed for 10 min. with methanol, acetone, or 4% paraformaldehyde containing 0.5% glutaraldehyde.

[2] = tested on: binding of CSFZ (Cys) to HepG2 cells; assay: Peptide inhibition of CSFZ (Cys) binding to HepG2 cells; design: species or system human; settings: peptides 0-250 μg/ml
Protocol: For indirect immunofluorescence, HepG2 cells (ATCC number HB8065, Rockville, Md.; Knowles, B. P., et al., Science 209:497-499, 1980) were grown on slides (Cel-Line Associates, Inc., Newfield, N.J.) overnight in minimum essential medium with 10% fetal calf serum (FCS-MEM; GIBCO, Grand Island, N.Y.), 1 mM L-glutamine (GIBCO), 3 mg/ml glucose (Sigma), 1×nonessential amino acids (GIBCO), 50 μg/ml penicillin, and 100 μg/ml streptomycin (GIBCO). For the enzyme-linked immunosorbent assay, 10^5 HepG2 cells were deposited in 96-well Falcon tissue culture plates (Becton Dickinson, Oxnard, Calif.) and grown for 24 hr. in FCS-MEM. The cells were fixed with 4% paraformaldehyde, washed three times with PBS, and stored at 4° C. in BSA/TPBS until use. Before the experiments, plates were blocked for 2 hr. at 37° C. with 1% gelatin, 0.05% Tween in PBS (pH 7.4) (gelatin/TPBS). The cells were sequentially incubated at 37° C. with 50 μl of recombinant protein diluted in gelatin/TPBS for 1 hr. MAb 2A10 at a concentration of 10 μg/ml for 30 min. and goat anti-mouse immunoglobulin conjugated to alkaline phosphatase (Boehringer Mannheim) for 30 min. […] After 15 min., fluorescence was read in a Fluoroskan II plate reader (Flow Lab Inc., McLean, Va.) with excitation filter 350 nm and emission filter 460 nm. In the peptide inhibition experiments, wells were first incubated for 1 hr. at 37° C. with peptides diluted in gelatin/TPBS, washed three times with gelatin/TPBS, and then incubated with recombinant CSFZ (Cys) at a concentration of 2.5 μg/ml for 1 hr. at 37° C.
The same assay system was used to evaluate the ability of the various synthetic peptides to inhibit the binding of CSFZ (Cys) to the HepG2 cells. Paraformaldehyde-fixed immobilized HepG2 cells were pre-incubated with peptides at concentrations between 0 and 250 μg/ml, washed, and incubated with CSFZ (Cys) at 2.5 μg/ml. After washing, the cells were incubated with MAb 2A10 followed by anti-mouse IgG conjugated to alkaline phosphatase. […] Each peptide concentration was assayed in triplicate wells and the means of the fluorescent reading were calculated. […] The cysteines and the sulfhydryl groups were necessary for inhibition (Pf1A, Pf1B and Pf2A were not active). […] The results are shown graphically in FIG. 7 wherein percent inhibition (after subtraction of background) is plotted as a function of peptide concentration. Pf1: open circles; Pf2: dark circles; Pf3: open upright triangles; Pf1A dark square; Pf1B open inverted triangles; Pf2A dark triangle; Pf70 open diamond; Pf25C dark diamond. Standard deviations were no greater than ±5% of the plotted mean.

[3] = tested on: Vivax-2 binding to sulfatide; assay: Inhibition of binding of Vivax-2 to sulfatide; design: species or system P. vivax; settings: for effect on binding to sulfatide: 1 mg/ml
Protocol: (§1) Solid phase binding assays: Thirty μl of lipids or steroids dissolved in methanol (20-250 μg/ml) were dried into wells of microassay plates (Cat.# 3911—Falcon—Oxnard, Calif.). The plates were then blocked with 1% BSA/PBS pH 7.4 (BSA/PBS) for 30 minutes. Wells were incubated with recombinant protein (or with parasite extract) in PBS/BSA for 1 hour, washed 3 times with BSA/PBS, incubated for 1 hour with monoclonal antibodies 2F2 or 2A10 in BSA/PBS, washed 3 times, and then incubated with (10^5 cpm/well) ^125I protein A (Amersham Corp., Arlington Hts., Ill.). In the case of the P. berghei CS protein, wells were incubated with ^125I labelled mAb 3D11. Wells were washed again and the bound radioactive protein was counted in an LKB gamma-counter (model #1260, Pharmacia, Inc., Gaithersburg, Md.). For inhibition assays, the recombinant proteins were mixed with dilutions of the various polymers in BSA/PBS, the mixture was loaded into the wells of the microtiter plates, and the binding assay performed as above. See also, Roberts, et al. J. Biol. Chem. 260:9405-9411, 1985.

[4] = tested on: Vivax-2 binding to cholesterol-sulfate; assay: Inhibition of binding of Vivax-2 to cholesterol-sulfate; design: species or system P. vivax
Protocol: as §1

[5] = tested on: P. berghei sporozoites; assay: Infection assay of HepG2 cells with polymers; assay type: cell-based
Protocol: Infection assay: Semiconfluent monolayers of HepG2 cells were grown in 10% FCS/MEM on 8 chamber slides (#4808 Lab-tek -Naperville, Ill.) for 24 hours prior to each experiment. Sporozoites were pre-incubated in media alone or with the various polymers for 15 minutes at 4° C. 5×10^4 sporozoites, in a volume of 10 μl, were added per chamber. After 4 hours of incubation at 37° C., the medium containing the sporozoites was gently aspirated, and 0.5 ml MEM/10% FCS was added. Fresh medium was added at 18 hours and 28 hours, and then cells were fixed with methanol containing 0.3% H2O2 at 48 hours. After fixation, the wells were blocked with 10% FCS/PBS and were incubated with 10 μg/ml of mAb 2E6. Binding of the mAb was detected with a polyclonal goat anti-mouse Ig conjugated to horseradish peroxidase. […] The parasites in each well are counted under a 40× light microscope objective.
The cells were fixed and stained with mAb 2E6, followed by goat-anti-mouse linked to horseradish peroxidase. Numbers represent schizonts counted/20 fields under 40× magnification in a light microscope.

KPKHKKLKQPADGNPDPNAN [Pf70]
inhibition of the binding of CS27IVC to liver sections [1]: failed to inhibit | inhibition of CSFZ (Cys) binding to HepG2 cells [2]: no inhibitory effect

PXSVTXGNGIQVRIKPGSAN (PC(Cam)SVTC(Cam)GNGIQVRIKPGSAN) [Pf1B]
inhibition of the binding of CS27IVC to liver sections [1]: failed to inhibit | inhibition of CSFZ (Cys) binding to HepG2 cells [2]: not active

chondroitin-sulfate A [CHONDROITIN SULFATE-A]
effect on binding to sulfatide [3]: no effect | % INHIBITION ([3]; inhibitor 1 mg/ml): 0% | % INHIBITION ([4]; inhibitor 1 mg/ml): 0% | % INHIBITION ([4]; inhibitor 10 mg/ml): 16% | PARASITE # (exoerythrocytic liver stages in 20 microscope fields, duplicate) ([5]; inhibitor 5 μg/ml present during invasion): 250 | effect on sporozoite invasion ([5]; present during invasion, 5-50 μg/ml): no effect

PASVTAGNGIQVRIKPGSAN [Pf1A, Identical to Pf1 except alanine residues are substituted for the two cysteines]
inhibition of the binding of CS27IVC to liver sections [1]: failed to inhibit | inhibition of CSFZ (Cys) binding to HepG2 cells [2]: not active

dermatan sulfate
effect on binding to sulfatide [3]: no effect

AGNGIQVRIKPGSANKPKDE [Pf2A, Identical to Pf2 except the first cysteine has been replaced by an alanine residue]
inhibition of the binding of CS27IVC to liver sections [1]: failed to inhibit | inhibition of CSFZ (Cys) binding to HepG2 cells [2]: not active

chondroitin-sulfate C [CHONDROITIN SULFATE-C]
effect on binding to sulfatide [3]: no effect | % INHIBITION ([3]; inhibitor 1 mg/ml): 0% | % INHIBITION ([4]; inhibitor 10 mg/ml): 0%

chondroitin-sulfate B [CHONDROITIN SULFATE-B]
effect on binding to sulfatide [3]: only slightly inhibitory | % INHIBITION ([3]; inhibitor 100 μg/ml): 22.3% | % INHIBITION ([3]; inhibitor 1 mg/ml): 34.3% | % INHIBITION ([4]; inhibitor 0 mg/ml (so in the source)): 51% | % INHIBITION ([4]; inhibitor 100 μg/ml): 0% | % INHIBITION ([4]; inhibitor 1 mg/ml): 27%

PCSVTCGNGIQVRIKPGSAN [Pf1]
inhibition of the binding of CS27IVC to liver sections [1]: inhibited the binding of CS27IVC | inhibition of CSFZ (Cys) binding to HepG2 cells [2]: inhibited the CSFZ (Cys) binding; also recorded: competes very effectively

CGNGIQVRIKPGSANKPKDE [Pf2]
inhibition of the binding of CS27IVC to liver sections [1]: inhibited the binding of CS27IVC | inhibition of CSFZ (Cys) binding to HepG2 cells [2]: inhibited the CSFZ (Cys) binding; also recorded: competes much less effectively

keratan-sulfate
effect on binding to sulfatide [3]: no effect | % INHIBITION ([3]; inhibitor 1 mg/ml): 37% | % INHIBITION ([4]; inhibitor 10 mg/ml): 0%

PGSANKPKDELDYANDIEKK [Pf3, Contains only a C-proximal moiety of Region II+]
inhibition of the binding of CS27IVC to liver sections [1]: failed to inhibit; also recorded: No inhibition of binding

hyaluronic acid
effect on binding to sulfatide [3]: no effect | % INHIBITION ([3]; inhibitor 1 mg/ml): 0% | % INHIBITION ([4]; inhibitor 1 mg/ml): 0% | % INHIBITION ([4]; inhibitor 10 mg/ml): 28%
